# In ChEMBL document CHEMBL3885861, “Open TG-GATES”:
# *1 amine or outer side, *2 acyl side, *3 side chain or, on linkers, in order; H or OH if unused. Where a SMILES comes first, the peptide text is derived from it. Bridges are numbered along the chain shown (N, C = ends). [ ]: non-standard residue; d: D form. Trp(2-yl) = O=C([C@H](Cc1c([*:3])[nH]c2ccccc12)N[*:1])[*:2]; Leu(4R-OH,5-OH) = C[C@](O)(CO)C[C@H](N)C(=O)O; cisHyp = O=C(O)[C@@H]1C[C@H](O)CN1
# Species on record: Rattus norvegicus
# Experiment: Open TG-GATES - Regimen: Single
# Assay type: toxicity, organism-based, Sprague-Dawley
# Parameters: regimen Single, gender Male, age 6 weeks
# Conditions: in vivo, ip, 0 mg/kg, route intraperitoneal injection, dose level Control; for APTT / Bas / Eos / Fbg / Hb / Ht / Lym / MCH / MCHC / MCV / Mono / Neu / PT / Plat / RBC / Ret / WBC: tissue Blood; for KIDNEY_L / KIDNEY_R / KIDNEY_TOTAL: tissue Kidney; for LIVER: tissue Liver; for A/G / ALP / ALT / AST / BUN / CRE / Ca / Cl / DBIL / GLC / IP / K / LDH / Na / PL / RALB / TBIL / TC / TG / TP / gamma-GTP: tissue Plasma
smiles,measurement,setting,value
"C[C@@H]1NC(=O)[C@H](C[C@@](C)(O)CO)NC(=O)[C@@H]2Cc3c([nH]c4ccccc34)SC[C@H](NC(=O)[C@@H]([C@H](C)O)NC1=O)C(=O)N1C[C@@H](O)C[C@H]1C(=O)N[C@@H](C)C(=O)N2 [PHALLOIDIN] (cyclo(A[dT]C[cisHyp]A[Trp(2-yl)][Leu(4R-OH,5-OH)]); thioether 3-6)",TERMINAL_BW,3 h,206 g
same,APTT,3 h,23.6 s
same,Bas,3 h,0%
same,Eos,3 h,0.2%
same,Fbg,3 h,283.8 mg/dL
same,Hb,3 h,12.9 g/dL
same,Ht,3 h,40.5%
same,Lym,3 h,73.8%
same,MCH,3 h,20.1 pg
same,MCHC,3 h,32%
same,MCV,3 h,62.8 fL
same,Mono,3 h,2.4%
same,Neu,3 h,22.8%
same,PT,3 h,16.1 s
same,Plat,3 h,112.9 x10_4/uL
same,RBC,3 h,645 x10_4/ul
same,Ret,3 h,7.5%
same,WBC,3 h,74.9 x10_2/uL
same,KIDNEY_L,3 h,0.9 g
same,KIDNEY_R,3 h,0.9 g
same,KIDNEY_TOTAL,3 h,1.8 g
same,LIVER,3 h,8.6 g
same,A/G,3 h,1.2
same,ALP,3 h,1620.6 IU/L
same,ALT,3 h,45.2 IU/L
same,AST,3 h,76.4 IU/L
same,BUN,3 h,11.2 mg/dL
same,CRE,3 h,0.2 mg/dL
same,Ca,3 h,10.4 mg/dL
same,Cl,3 h,108.6 meq/L
same,DBIL,3 h,0 mg/dL
same,GLC,3 h,187.8 mg/dL
same,IP,3 h,8.4 mg/dL
same,K,3 h,3.8 meq/L
same,LDH,3 h,165.2 IU/L
same,Na,3 h,141.8 meq/L
same,PL,3 h,132 mg/dL
same,RALB,3 h,2.8 g/dL
same,TBIL,3 h,0 mg/dL
same,TC,3 h,81 mg/dL
same,TG,3 h,66.2 mg/dL
same,TP,3 h,5.2 g/dL
same,gamma-GTP,3 h,1 IU/L
same,TERMINAL_BW,6 h,208.8 g
same,APTT,6 h,22.5 s
same,Bas,6 h,0%
same,Eos,6 h,0.4%
same,Fbg,6 h,305.6 mg/dL
same,Hb,6 h,12.5 g/dL
same,Ht,6 h,38.7%
same,Lym,6 h,79.6%
same,MCH,6 h,20.4 pg
same,MCHC,6 h,32.2%
same,MCV,6 h,63.4 fL
same,Mono,6 h,1.8%
same,Neu,6 h,17.2%
same,PT,6 h,16 s
same,Plat,6 h,126.1 x10_4/uL
same,RBC,6 h,611.2 x10_4/ul
same,Ret,6 h,7.3%
same,WBC,6 h,94.6 x10_2/uL
same,KIDNEY_L,6 h,0.9 g
same,KIDNEY_R,6 h,0.9 g
same,KIDNEY_TOTAL,6 h,1.8 g
same,LIVER,6 h,9.1 g
same,A/G,6 h,1.2
same,ALP,6 h,1368 IU/L
same,ALT,6 h,38 IU/L
same,AST,6 h,69 IU/L
same,BUN,6 h,15.6 mg/dL
same,CRE,6 h,0.2 mg/dL
same,Ca,6 h,10.5 mg/dL
same,Cl,6 h,106.2 meq/L
same,DBIL,6 h,0 mg/dL
same,GLC,6 h,195.8 mg/dL
same,IP,6 h,7.8 mg/dL
same,K,6 h,4.2 meq/L
same,LDH,6 h,168.6 IU/L
same,Na,6 h,141.2 meq/L
same,PL,6 h,137 mg/dL
same,RALB,6 h,2.8 g/dL
same,TBIL,6 h,0 mg/dL
same,TC,6 h,82 mg/dL
same,TG,6 h,63 mg/dL
same,TP,6 h,5.2 g/dL
same,gamma-GTP,6 h,1.4 IU/L
same,TERMINAL_BW,9 h,208.4 g
same,APTT,9 h,22.5 s
same,Bas,9 h,0%
same,Eos,9 h,0.4%
same,Fbg,9 h,290.4 mg/dL
same,Hb,9 h,12.5 g/dL
same,Ht,9 h,39.2%
same,Lym,9 h,79.4%
same,MCH,9 h,20.4 pg
same,MCHC,9 h,31.9%
same,MCV,9 h,63.8 fL
same,Mono,9 h,1.6%
same,Neu,9 h,18%
same,PT,9 h,15.9 s
same,Plat,9 h,120.7 x10_4/uL
same,RBC,9 h,613.6 x10_4/ul
same,Ret,9 h,7.1%
same,WBC,9 h,83.1 x10_2/uL
same,KIDNEY_L,9 h,0.9 g
same,KIDNEY_R,9 h,1 g
same,KIDNEY_TOTAL,9 h,1.9 g
same,LIVER,9 h,9.2 g
same,A/G,9 h,1.2
same,ALP,9 h,1788.6 IU/L
same,ALT,9 h,45.2 IU/L
same,AST,9 h,75.4 IU/L
same,BUN,9 h,13.4 mg/dL
same,CRE,9 h,0.2 mg/dL
same,Ca,9 h,10.5 mg/dL
same,Cl,9 h,105 meq/L
same,DBIL,9 h,0 mg/dL
same,GLC,9 h,202.8 mg/dL
same,IP,9 h,7.7 mg/dL
same,K,9 h,4.3 meq/L
same,LDH,9 h,145.6 IU/L
same,Na,9 h,140.8 meq/L
same,PL,9 h,134.8 mg/dL
same,RALB,9 h,2.9 g/dL
same,TBIL,9 h,0.004 mg/dL
same,TC,9 h,79 mg/dL
same,TG,9 h,71.2 mg/dL
same,TP,9 h,5.3 g/dL
same,gamma-GTP,9 h,1.4 IU/L
same,TERMINAL_BW,24 h,216 g
same,APTT,24 h,22.7 s
same,Bas,24 h,0%
same,Eos,24 h,0.6%
same,Fbg,24 h,321.6 mg/dL
same,Hb,24 h,12.3 g/dL
same,Ht,24 h,38.4%
same,Lym,24 h,83.8%
same,MCH,24 h,20.3 pg
same,MCHC,24 h,32.1%
same,MCV,24 h,63.4 fL
same,Mono,24 h,1.6%
same,Neu,24 h,13.4%
same,PT,24 h,16 s
same,Plat,24 h,120 x10_4/uL
same,RBC,24 h,606.2 x10_4/ul
same,Ret,24 h,7.7%
same,WBC,24 h,76.3 x10_2/uL
same,KIDNEY_L,24 h,1 g
same,KIDNEY_R,24 h,1 g
same,KIDNEY_TOTAL,24 h,2 g
same,LIVER,24 h,9.4 g
same,A/G,24 h,1.2
same,ALP,24 h,1563.4 IU/L
same,ALT,24 h,40.8 IU/L
same,AST,24 h,69 IU/L
same,BUN,24 h,14 mg/dL
same,CRE,24 h,0.2 mg/dL
same,Ca,24 h,10.5 mg/dL
same,Cl,24 h,105.4 meq/L
same,DBIL,24 h,0.002 mg/dL
same,GLC,24 h,196 mg/dL
same,IP,24 h,8.9 mg/dL
same,K,24 h,3.9 meq/L
same,LDH,24 h,182.4 IU/L
same,Na,24 h,141.6 meq/L
same,PL,24 h,144.2 mg/dL
same,RALB,24 h,2.9 g/dL
same,TBIL,24 h,0.002 mg/dL
same,TC,24 h,85.6 mg/dL
same,TG,24 h,55.4 mg/dL
same,TP,24 h,5.3 g/dL
same,gamma-GTP,24 h,1.8 IU/L
